Experimental findings from patent publication US20230148005A1, “MACROCYCLIC COMPOUNDS AND USES THEREOF” (THESEUS PHARMACEUTICALS, INC., priority 2020, published 2023) are described below.

Assay [1] has as its target EGFR^L858R/T790M/C^797S (Homo sapiens, UniProt P00533, C797S/L858R/T790M). Put plainly: in vitro kinase assay (HTRF KinEASE-TK kit), LTC. The format is biochemical. The note with it: kinase inhibition. The source says:
(§1) Assays using an in vitro kinase assay kit (HTRF KinEASE-TK kit) can be used to study the inhibitory activity of compounds described herein with respect to EGFR mutants such as EGFR^L858R, EGFR^L58R/T790M, and EGFR^L858R/T790M/C^797S.

For assay [2], the target named is Ba/F3 EGFR-Del19/T790M/C797S (Homo sapiens, UniProt P00533, T790M/C797S, cells depend on it, form not given). Put plainly: Ba/F3 viability assay (CellTiter-Glo), DTC. The format is cell-based. Conditions: anti-proliferation, read-out: BaF3 DTC IC50. A digest of the protocol: (§2)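 Read-out: viability signal, used as the measure of proliferation inhibition by test compounds.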

Assay [3] has as its target Ba/F3 EGFR-Del19/T790M (Homo sapiens, UniProt P00533, T790M, cells depend on it, form not given). Put plainly: Ba/F3 viability assay (CellTiter-Glo), DT. The format is cell-based. Conditions: anti-proliferation, read-out: BaF3 DT IC50. A digest of the protocol: as §2
Assay [4] concerns the target EGFR^L858R (Homo sapiens, UniProt P00533, L858R). In words: in vitro kinase assay (HTRF KinEASE-TK kit), L. Conditions: kinase inhibition. The format is biochemical.
Text: as §1

The target of assay [5] is EGFR^L58R/T790M (Homo sapiens, UniProt P00533, L858R/T790M). In words: in vitro kinase assay (HTRF KinEASE-TK kit), LT. The note with it: kinase inhibition. The assay is classed as biochemical.
Chain of EGFR^L58R/T790M (P00533 25-1210 T790M/L858R): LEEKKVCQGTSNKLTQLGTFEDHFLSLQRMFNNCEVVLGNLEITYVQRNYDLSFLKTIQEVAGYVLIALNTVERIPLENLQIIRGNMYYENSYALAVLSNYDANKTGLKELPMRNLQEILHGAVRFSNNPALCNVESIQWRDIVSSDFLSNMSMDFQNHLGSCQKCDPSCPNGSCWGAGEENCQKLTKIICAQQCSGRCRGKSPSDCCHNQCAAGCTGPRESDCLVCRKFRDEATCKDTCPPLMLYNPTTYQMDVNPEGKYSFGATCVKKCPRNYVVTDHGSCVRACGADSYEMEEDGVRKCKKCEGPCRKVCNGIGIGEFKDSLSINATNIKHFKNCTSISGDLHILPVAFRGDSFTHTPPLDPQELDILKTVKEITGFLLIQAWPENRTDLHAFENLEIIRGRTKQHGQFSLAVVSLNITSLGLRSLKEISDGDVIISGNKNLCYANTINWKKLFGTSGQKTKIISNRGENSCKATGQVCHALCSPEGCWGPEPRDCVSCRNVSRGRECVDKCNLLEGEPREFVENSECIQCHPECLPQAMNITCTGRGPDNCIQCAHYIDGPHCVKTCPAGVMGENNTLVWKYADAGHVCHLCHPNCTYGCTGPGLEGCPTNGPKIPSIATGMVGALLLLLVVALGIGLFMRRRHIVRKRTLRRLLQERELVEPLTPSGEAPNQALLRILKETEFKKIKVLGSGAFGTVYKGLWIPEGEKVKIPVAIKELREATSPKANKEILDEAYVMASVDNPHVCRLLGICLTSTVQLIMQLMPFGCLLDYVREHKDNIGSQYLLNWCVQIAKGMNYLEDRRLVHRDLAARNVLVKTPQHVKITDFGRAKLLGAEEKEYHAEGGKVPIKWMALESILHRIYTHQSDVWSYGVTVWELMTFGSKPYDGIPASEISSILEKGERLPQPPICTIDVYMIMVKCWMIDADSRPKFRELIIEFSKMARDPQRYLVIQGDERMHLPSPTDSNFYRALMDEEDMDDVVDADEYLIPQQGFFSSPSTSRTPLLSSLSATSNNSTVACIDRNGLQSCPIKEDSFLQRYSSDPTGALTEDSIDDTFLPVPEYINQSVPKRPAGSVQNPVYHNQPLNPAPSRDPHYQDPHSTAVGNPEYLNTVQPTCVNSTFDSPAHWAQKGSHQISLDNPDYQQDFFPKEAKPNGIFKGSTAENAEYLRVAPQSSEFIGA
Text: as §1

Assay [6] relates to Ba/F3 Parental. Put plainly: Ba/F3 viability assay (CellTiter-Glo), parental. The format is cell-based. Conditions: Mus musculus, BaF3, anti-proliferation. A digest of the protocol:
as §2

Assay [7] addresses Ba/F3 EGFR-Del19/C797S (Homo sapiens, UniProt P00533, C797S, cells depend on it, form not given). Put plainly: Ba/F3 viability assay (CellTiter-Glo), DC. The assay is classed as cell-based. The note with it: anti-proliferation, read-out: BaF3 DC IC50. A digest of the protocol: as §2

pIC50: −log10 of the molar value.

Chain of EGFR^L858R (P00533 25-1210 L858R): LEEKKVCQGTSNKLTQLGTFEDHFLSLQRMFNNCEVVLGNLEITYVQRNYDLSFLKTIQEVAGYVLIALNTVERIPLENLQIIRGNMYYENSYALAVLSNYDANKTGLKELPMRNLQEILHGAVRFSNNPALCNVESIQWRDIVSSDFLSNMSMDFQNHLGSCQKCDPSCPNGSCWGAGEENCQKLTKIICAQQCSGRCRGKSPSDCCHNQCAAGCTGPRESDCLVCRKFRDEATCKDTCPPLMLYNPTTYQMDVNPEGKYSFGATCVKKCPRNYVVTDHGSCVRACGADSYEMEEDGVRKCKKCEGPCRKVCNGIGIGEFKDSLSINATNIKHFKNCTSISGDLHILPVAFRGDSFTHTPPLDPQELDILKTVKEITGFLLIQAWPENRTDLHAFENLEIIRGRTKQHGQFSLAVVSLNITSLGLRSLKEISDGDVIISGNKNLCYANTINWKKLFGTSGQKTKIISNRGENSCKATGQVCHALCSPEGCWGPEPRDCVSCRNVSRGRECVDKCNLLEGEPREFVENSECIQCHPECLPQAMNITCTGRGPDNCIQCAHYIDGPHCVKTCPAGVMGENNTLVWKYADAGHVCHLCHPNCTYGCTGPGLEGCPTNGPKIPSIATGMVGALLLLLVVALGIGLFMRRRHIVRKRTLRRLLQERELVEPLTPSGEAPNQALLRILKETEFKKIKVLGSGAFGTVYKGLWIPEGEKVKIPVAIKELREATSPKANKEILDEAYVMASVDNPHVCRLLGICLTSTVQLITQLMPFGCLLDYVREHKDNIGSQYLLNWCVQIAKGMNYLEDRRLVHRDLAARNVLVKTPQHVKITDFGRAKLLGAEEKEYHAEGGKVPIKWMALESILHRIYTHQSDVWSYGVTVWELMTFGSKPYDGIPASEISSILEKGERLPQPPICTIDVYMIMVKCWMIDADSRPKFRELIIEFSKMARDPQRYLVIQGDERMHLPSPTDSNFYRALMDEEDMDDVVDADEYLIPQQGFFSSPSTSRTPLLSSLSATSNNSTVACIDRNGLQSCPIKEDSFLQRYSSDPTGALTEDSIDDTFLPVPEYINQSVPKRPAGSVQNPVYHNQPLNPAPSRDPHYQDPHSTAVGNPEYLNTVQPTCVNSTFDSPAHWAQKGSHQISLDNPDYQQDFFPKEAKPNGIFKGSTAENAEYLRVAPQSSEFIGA
Chain of Ba/F3 EGFR-Del19/C797S (P00533 with tags, fused parts or gaps DEL746-750/C797S, form open): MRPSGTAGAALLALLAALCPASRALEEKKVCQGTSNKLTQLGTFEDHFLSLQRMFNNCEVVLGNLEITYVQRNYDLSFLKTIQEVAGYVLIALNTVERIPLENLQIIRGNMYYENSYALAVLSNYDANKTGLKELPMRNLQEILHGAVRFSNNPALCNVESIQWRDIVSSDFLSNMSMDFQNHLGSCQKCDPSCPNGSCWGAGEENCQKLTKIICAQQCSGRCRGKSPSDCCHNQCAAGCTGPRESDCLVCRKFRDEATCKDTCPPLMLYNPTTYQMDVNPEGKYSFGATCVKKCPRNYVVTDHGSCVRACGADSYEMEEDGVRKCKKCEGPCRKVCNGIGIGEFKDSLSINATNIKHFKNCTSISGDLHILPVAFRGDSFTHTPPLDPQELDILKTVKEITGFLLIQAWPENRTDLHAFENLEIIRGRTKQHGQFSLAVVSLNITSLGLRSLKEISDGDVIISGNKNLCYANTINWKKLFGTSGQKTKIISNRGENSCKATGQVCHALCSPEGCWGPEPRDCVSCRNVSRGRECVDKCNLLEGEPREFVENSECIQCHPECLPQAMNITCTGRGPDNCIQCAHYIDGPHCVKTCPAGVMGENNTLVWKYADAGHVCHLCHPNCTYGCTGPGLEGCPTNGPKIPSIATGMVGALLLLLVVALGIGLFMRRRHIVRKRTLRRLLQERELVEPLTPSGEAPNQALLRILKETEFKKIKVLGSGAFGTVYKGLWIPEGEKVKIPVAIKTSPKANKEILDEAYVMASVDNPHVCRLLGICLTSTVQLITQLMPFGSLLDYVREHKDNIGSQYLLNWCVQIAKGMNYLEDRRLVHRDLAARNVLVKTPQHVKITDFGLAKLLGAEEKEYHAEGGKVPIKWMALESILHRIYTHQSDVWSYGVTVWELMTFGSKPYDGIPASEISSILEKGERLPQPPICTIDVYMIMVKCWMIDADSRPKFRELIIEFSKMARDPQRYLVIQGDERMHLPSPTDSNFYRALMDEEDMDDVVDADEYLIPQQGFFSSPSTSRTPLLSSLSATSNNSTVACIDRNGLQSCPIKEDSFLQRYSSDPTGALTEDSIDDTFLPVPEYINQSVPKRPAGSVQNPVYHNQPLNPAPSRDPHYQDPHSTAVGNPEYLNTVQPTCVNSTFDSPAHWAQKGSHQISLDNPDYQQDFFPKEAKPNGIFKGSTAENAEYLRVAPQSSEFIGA
Chain of Ba/F3 EGFR-Del19/T790M (P00533 with tags, fused parts or gaps DEL746-750/T790M, form open): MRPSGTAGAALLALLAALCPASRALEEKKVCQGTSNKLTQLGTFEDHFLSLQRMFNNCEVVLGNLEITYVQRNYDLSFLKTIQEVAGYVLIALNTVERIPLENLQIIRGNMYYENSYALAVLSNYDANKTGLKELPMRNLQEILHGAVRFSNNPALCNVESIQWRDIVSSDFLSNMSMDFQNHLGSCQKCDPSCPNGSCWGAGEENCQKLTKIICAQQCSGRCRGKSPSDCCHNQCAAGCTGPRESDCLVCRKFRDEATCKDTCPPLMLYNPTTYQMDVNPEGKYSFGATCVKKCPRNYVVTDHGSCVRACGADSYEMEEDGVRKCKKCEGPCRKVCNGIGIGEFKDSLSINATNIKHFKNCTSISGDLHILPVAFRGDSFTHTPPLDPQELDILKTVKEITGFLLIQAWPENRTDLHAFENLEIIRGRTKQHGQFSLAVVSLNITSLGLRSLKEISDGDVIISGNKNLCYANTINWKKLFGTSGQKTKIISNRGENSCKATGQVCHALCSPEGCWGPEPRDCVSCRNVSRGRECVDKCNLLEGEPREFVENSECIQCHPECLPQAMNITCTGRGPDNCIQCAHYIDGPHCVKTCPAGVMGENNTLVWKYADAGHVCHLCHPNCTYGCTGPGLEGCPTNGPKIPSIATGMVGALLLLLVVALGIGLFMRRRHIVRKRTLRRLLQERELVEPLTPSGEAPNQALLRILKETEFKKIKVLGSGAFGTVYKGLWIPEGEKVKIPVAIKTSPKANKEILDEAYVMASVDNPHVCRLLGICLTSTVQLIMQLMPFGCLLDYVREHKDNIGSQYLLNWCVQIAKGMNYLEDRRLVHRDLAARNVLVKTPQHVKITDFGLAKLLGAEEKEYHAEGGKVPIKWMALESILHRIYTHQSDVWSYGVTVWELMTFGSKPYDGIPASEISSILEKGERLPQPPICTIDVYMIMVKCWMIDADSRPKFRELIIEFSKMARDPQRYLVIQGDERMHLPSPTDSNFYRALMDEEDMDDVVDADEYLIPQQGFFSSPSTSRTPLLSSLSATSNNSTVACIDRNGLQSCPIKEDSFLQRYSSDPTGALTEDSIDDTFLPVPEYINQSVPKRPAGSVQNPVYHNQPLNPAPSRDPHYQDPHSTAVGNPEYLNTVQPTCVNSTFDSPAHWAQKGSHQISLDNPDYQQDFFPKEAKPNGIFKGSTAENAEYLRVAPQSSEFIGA

Regarding `C[C@H]1CCOc2c(cnn2C)-c2nccc(n2)Nc2cc3c(cn2)c(-c2cccc(N4CCC(N5CCOCC5)CC4)c2)nn31` [(160)], the negative logarithm of the IC50 (pIC50) is over 8.00 in assay [1], over 8.00 in assay [4], over 8.00 in assay [5] and 6.00 to 7.00 in assay [6]. Moreover, the GI50 in assay [2] was under 10 nM; in assay [3], under 10 nM; in assay [7], 10 to 100 nM.

Take `CCN1CCc2c(cc(-c3nn4c5cc(ncc35)Nc3ccnc(n3)-c3cnn(C)c3OCC[C@@H]4C)n2C)C1C` (some centres unmarked) [(161)]: the negative-log IC50 (pIC50) in assay [1] is over 8.00; in assay [4], over 8.00; in assay [5] it was over 8.00; in assay [6] it was 6.00 to 7.00. Further, the GI50 is under 10 nM in assay [2], under 10 nM in assay [3] and 10 to 100 nM in assay [7].

Turning to `C[C@H]1CCOc2c(cnn2C)-c2nccc(n2)Nc2cc3c(cn2)c(-c2ccc(CN(C)C)o2)nn31` [(162)], the pIC50 was over 8.00 in assay [1], over 8.00 in assay [4], over 8.00 in assay [5] and 6.00 to 7.00 in assay [6]. For the same compound, the GI50 in assay [2], in assay [3] and in assay [7] was under 10 nM in each case.

Consider `C[C@H]1CCOc2c(cnn2C)-c2nccc(n2)Nc2cc3c(cn2)c(-c2cccc(CCN4CCOCC4)c2)nn31` [(163)], for which the pIC50 in assay [1] is over 8.00; in assay [4], over 8.00; in assay [5] it was over 8.00; in assay [6], 6.00 to 7.00. Besides, the results for the GI50 in assay [2], in assay [3] and in assay [7] were under 10 nM, 10 to 100 nM and 10 to 100 nM, respectively.

`C[C@H]1CCOc2c(cnn2C)-c2nccc(n2)Nc2cc3c(cn2)c(-c2ccc(CN4CCOCC4)o2)nn31` [(164)]: the pIC50 is over 8.00 in assay [1], over 8.00 in assay [4], over 8.00 in assay [5] and 6.00 to 7.00 in assay [6]. Moreover, the GI50 was under 10 nM in assay [2], under 10 nM in assay [3] and 10 to 100 nM in assay [7].

On to `C[C@H]1CCOc2c(cnn2C)-c2nccc(n2)Nc2cc3c(cn2)c(-c2cccc(CN(C)C)c2)nn31` [(165)], for which the negative-log IC50 (pIC50) in assay [1] is over 8.00; in assay [4], over 8.00; in assay [5], over 8.00; in assay [6], 6.00 to 7.00. The GI50 in assay [2], in assay [3] and in assay [7] was under 10 nM throughout.

In the case of `C[C@H]1CCOc2c(cnn2C)-c2nccc(n2)Nc2cc3c(cn2)c(-c2cccc(N4CC[C@@H](N(C)C)C4)c2)nn31` [(166)], the pIC50 in assay [1] was over 8.00; in assay [4], over 8.00; in assay [5] it was over 8.00; in assay [6], 6.00 to 7.00. Further, the GI50 in assay [2], in assay [3] and in assay [7] was under 10 nM in each case.

Consider `C[C@H]1CCOc2c(cnn2C)-c2nccc(n2)Nc2cc3c(cn2)c(-c2cccc(N4CC[C@H](N(C)C)C4)c2)nn31` [(167)], for which the negative logarithm of the IC50 (pIC50) in assay [1] was over 8.00; in assay [4], over 8.00; in assay [5], over 8.00; in assay [6], 6.00 to 7.00. Besides, the GI50 in assay [2], in assay [3] and in assay [7] was under 10 nM in each case.

As for `Cc1cc(-c2nn3c4cc(ncc24)Nc2ccnc(n2)-c2cnn(C)c2OCC[C@@H]3C)oc1CN(C)C` [(168)], the pIC50 in assay [1] is over 8.00; in assay [4] it was over 8.00; in assay [5], over 8.00; in assay [6], 6.00 to 7.00. Besides, the GI50 in assay [2], in assay [3] and in assay [7] was under 10 nM throughout.

With `C[C@H]1CCOc2c(cnn2C)-c2nccc(n2)Nc2cc3c(cn2)c(N2CC[C@H](CN(C)CCF)C2)nn31` [(169)], the pIC50 was over 8.00 in assay [1], over 8.00 in assay [4], over 8.00 in assay [5] and 6.00 to 7.00 in assay [6]. Also, the GI50 in assay [2], in assay [3] and in assay [7] was under 10 nM each time.

In the case of `C[C@H]1CCOc2c(cnn2C)-c2nccc(n2)Nc2cc3c(cn2)c(N2CC[C@H](N(C)CCF)C2)nn31` [(170)], the pIC50 in assay [1] is over 8.00; in assay [4], over 8.00; in assay [5], over 8.00; in assay [6] it was 6.00 to 7.00. For the same compound, the GI50 in assay [2] was under 10 nM; in assay [3], 10 to 100 nM; in assay [7], 10 to 100 nM.
